These results are taken from ChEMBL document CHEMBL2412967, “A FRET-based assay for the discovery of West Nile Virus NS2B-NS3 protease inhibitors” (Bioorg Med Chem Lett, 2013).

Assay [1] has as its system West Nile virus. Put plainly: Ratio of kcat to Km for West Nile Virus NS2B-NS3 protease expressed in Escherichia coli BL21 (DE3) after 1 hr by colorimetric assay.
Assay [2] deals with West Nile virus. Put plainly: Activity at West Nile Virus NS2B-NS3 protease expressed in Escherichia coli BL21 (DE3) after 1 hr by colorimetric assay.
Assay [3] relates to West Nile virus. Put plainly: Ratio of kcat to Km for West Nile Virus NS2B-NS3 protease expressed in Escherichia coli BL21 (DE3) after 1 hr by FRET assay.
In assay [4] the test system is West Nile virus. In words: Activity at West Nile Virus NS2B-NS3 protease expressed in Escherichia coli BL21 (DE3) after 1 hr by FRET assay.

Each structure is given as a SMILES string. Peptide text beside a SMILES is read from it.

For orientation: kcat/Km means the second-order rate constant that governs catalysis at low substrate concentration. One may read the Km as the concentration of substrate that gives half-maximal velocity. As usually defined, the kcat is the maximal rate divided by the concentration of active sites.

Consider `COc1ccc2c(CC(=O)N[C@@H](CCCCN)C(=O)N[C@@H](CCCCN)C(=O)N[C@@H](CCCNC(=N)N)C(=O)NCC(=O)NCC(Nc3ccc([N+](=O)[O-])cc3[N+](=O)[O-])C(=O)N[C@@H](C)C(=O)N[C@@H](CCCCN)C(N)=O)cc(=O)oc2c1` (stereo partly specified) (HELM PEPTIDE1{[COc1ccc2c(CC(=O)[*:2])cc(=O)oc2c1].K.K.R.G.[C[C@H](NC(=O)C(CN[*:1])Nc1ccc([N+](=O)[O-])cc1[N+](=O)[O-])C(=O)N[C@@H](CCCCN)C(N)=O]}$$$$V2.0), for which the figures for the kcat/Km in the assay with West Nile virus [1] and with West Nile virus [3] were 3760 M⁻¹ s⁻¹ and 21400 M⁻¹ s⁻¹, respectively. Moreover, the Km came out at 69.9 µM in the assay with West Nile virus [2] and 3.35 µM in the assay on West Nile virus [4]. Further, the results for the kcat in the assay on West Nile virus [2] and in the assay on West Nile virus [4] were 0.263 s⁻¹ and 0.0717 s⁻¹, respectively.
